Literature values in patent US6395309B1, “Use of an extract of Alchemilla vulgaris to inhibit angiogenesis” (Weber & Weber GmbH & Co. KG, priority 1998, dated 2002).

How the values were obtained:
[1] = clinically tested

Compound	histamine release from mast cells (mast cells)	toxic effects on clinical testing [1]
O=c1c(O)c(-c2ccc(O)cc2)oc2cc(O)cc(O)c12 [Campherol]	inhibits histamine release	
Cc1ccc(C(=O)Nc2ccc(S(=O)(=O)O)c3cc(S(=O)(=O)O)cc(S(=O)(=O)O)c23)cc1NC(=O)c1cccc(NC(=O)Nc2cccc(C(=O)Nc3cc(C(=O)Nc4ccc(S(=O)(=O)O)c5cc(S(=O)(=O)O)cc(S(=O)(=O)O)c45)ccc3C)c2)c1 [Sumarin]		therapeutic use is questionable because of toxic effects
